Measurements from PMC9090415, “Discovery of small molecule inhibitors of Plasmodium falciparum apicoplast DNA polymerase” (Journal of Enzyme Inhibition and Medicinal Chemistry, 2022).
pIC50: −log10 of the molar value.

Target: P. falciparum apicoplast DNA polymerase (Pf-apPOL) (Plasmodium falciparum, UniProt Q8ILY1)
Assay: Fluorescence-based high-throughput DNA polymerase assay (molecular beacon), primary screen and dose-response
Type: biochemical
Settings: for DNA Pol: 90 min, 10 µM; for % inhibition Apo pol 5': DRC-2, 5'; for pIC50: supplemental file 2, sheet IC50 nontoxic compounds, Pf-apPOL
Method: The HT assay employs a molecular beacon, a stem-loop DNA template with a Cy3 dye and the Black Hole Quencher on the 3′ and 5′ ends of the DNA, respectively. Pf-apPOL concentration is based on a calculated absorptivity of ε280 = 56750 M^−1 cm^−1. Reactions were carried out at 25 °C, using Corning 3575 […] (well-volume, 20 µL). Assays testing for compound inhibition composed of reaction buffer (pH 7.9 in 50 mM potassium acetate, 20 mM Tris-acetate and 10 mM magnesium acetate), Pf-apPOL (20 nM), DNA substrate (20 nM), dNTPs (6 µM), and compound (10 µM in DMSO). The DNA and nucleotide substrates (dNTPs) were at concentrations of 20 nM and 6 µM, respectively, in the assay. Pf-apPOL was incubated in the reaction buffer with dNTPs and the compound of interest (10 µM, in the assay) at 25 °C for 10 min. The DNA substrate was then added and the reaction was allowed to proceed for 90 min at 25 °C.
Each assay plate contained 16 negative controls (no Pf-apPOL, DMSO present) and 16 positive controls (Pf-apPOL present, no DMSO). The fluorescence of each well was determined using a BioTek Synergy Neo fluorescence plate reader using excitation and emission wavelengths of 555 and 570 nm, respectively.
In the above, Min is the average of fluorescence emission of the negative controls (substrate only), Max the average fluorescence emission from the positive controls (enzyme + substrate), and Test the emission from the assays in the presence of compounds (enzyme + compound + substrates). […] […] The IC50 of each compound was determined using Equation (2): (2) IC50= Vmax/(1+ (I/IC50)^n)
In the above, n measures cooperativity, with n > 1 indicating synergistic binding of more than a single molecule of the compound.
To identify apPOL inhibitors we utilised our previously developed high-throughput DNA polymerase assay. The HT assay is based on a molecular beacon DNA template that forms a stem-loop with a Cy3 dye and the Black Hole Quencher on the 3′ and 5′ ends of the DNA, respectively. DNA polymerase activity extends an annealed primer through the stem region, displacing the fluorophore from the quencher, thereby increasing its fluorescence (Figure 1(A)). The assay accurately recapitulates the kinetic behaviour of apPOL, as measured through more conventional low-throughput gel-based assays. The Z′ factor for the assay described here was 0.9 across all plates (data not shown).
Figure 1. High-throughput screening. (A) The fluorescent-based DNA polymerase assay used to screen the compound libraries. The DNA template strand is a hairpin loop with a primer annealed to the loop. The 3’ end of the primer is 11 bases away from the 6 bp duplex. Strand displacement activity of the DNA polymerase separates the Cy3 dye from the Black hole quencher leading to an increase in fluorescent signal. (B) The high-throughput assay workflow. The DNA polymerase is incubated with […] compound for 10 min prior to addition of the hairpin substrate. The reaction is quenched at 3 different time points and the fluorescent signal is measured and % inhibition is determined using the provided equation.

Sequence of P. falciparum apicoplast DNA polymerase (Pf-apPOL) (Q8ILY1 entry or part of it): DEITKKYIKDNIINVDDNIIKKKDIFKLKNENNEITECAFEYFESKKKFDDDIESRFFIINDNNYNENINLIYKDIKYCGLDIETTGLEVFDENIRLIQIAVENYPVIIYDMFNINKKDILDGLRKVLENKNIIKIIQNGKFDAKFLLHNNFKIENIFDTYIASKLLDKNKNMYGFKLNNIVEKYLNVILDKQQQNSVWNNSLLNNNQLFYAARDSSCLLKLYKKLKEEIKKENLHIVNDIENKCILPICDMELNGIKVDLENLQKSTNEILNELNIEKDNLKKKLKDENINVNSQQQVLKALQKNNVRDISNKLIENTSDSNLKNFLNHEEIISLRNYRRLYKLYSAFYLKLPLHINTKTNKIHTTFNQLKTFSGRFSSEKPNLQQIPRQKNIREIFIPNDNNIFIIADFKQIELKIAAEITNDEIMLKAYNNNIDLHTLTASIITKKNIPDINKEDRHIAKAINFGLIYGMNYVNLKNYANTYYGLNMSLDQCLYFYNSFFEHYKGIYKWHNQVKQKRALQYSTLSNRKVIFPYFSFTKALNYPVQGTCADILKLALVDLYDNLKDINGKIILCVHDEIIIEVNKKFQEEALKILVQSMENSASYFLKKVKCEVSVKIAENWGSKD

**Q.** Which “DNA Pol” value ('DNA Pol', screening value, unit not given) does the source give for O=C(O)CC1=NN(c2cccc([N+](=O)[O-])c2)C(=O)C1 [KU0100531] here?
**A.** The value was 37.

**Q.** And the “% inhibition Apo pol 10'” value (DRC-1, concentration 2.5)?
**A.** The value was 32.2581%.

**Q.** And the “% inhibition Apo pol 10'” value (DRC-1, concentration 5)?
**A.** The value was 49.6373%.

**Q.** What about the “% inhibition Apo pol 10'” value (DRC-1, concentration 10) of the same molecule?
**A.** The value was 61.4137%.

**Q.** And the “% inhibition Apo pol 10'” value (DRC-1, concentration 20)?
**A.** Its value is 68.5645%.

**Q.** What about the “% inhibition Apo pol 10'” value (DRC-1, concentration 40) of the same molecule?
**A.** Its value is 76.8361%.

**Q.** And the “% inhibition Apo pol 10'” value (DRC-1, concentration 80)?
**A.** The value was 88.3009%.

**Q.** And the “% inhibition Apol 90'” value (DRC-1, 90', concentration 2.5)?
**A.** Its value is 15.7319%.

**Q.** And the “% inhibition Apol 90'” value (DRC-1, 90', concentration 5)?
**A.** Its value is 18.7201%.

**Q.** And the “% inhibition Apol 90'” value (DRC-1, 90', concentration 10)?
**A.** Its value is 28.2695%.

**Q.** What about the “% inhibition Apol 90'” value (DRC-1, 90', concentration 20) of the same molecule?
**A.** Its value is 34.3533%.

**Q.** And the “% inhibition Apol 90'” value (DRC-1, 90', concentration 40)?
**A.** Its value is 46.1706%.

**Q.** What about the “% inhibition Apol 90'” value (DRC-1, 90', concentration 80) of the same molecule?
**A.** The value was 68.1347%.

**Q.** And the “% inhibition apPOL 180'” value (DRC-1, 180', concentration 2.5)?
**A.** Its value is 13.4028%.

**Q.** What about the “% inhibition apPOL 180'” value (DRC-1, 180', concentration 5) of the same molecule?
**A.** The value was 8.316%.

**Q.** And the “% inhibition apPOL 180'” value (DRC-1, 180', concentration 10)?
**A.** The value was 15.9728%.

**Q.** And the “% inhibition apPOL 180'” value (DRC-1, 180', concentration 20)?
**A.** Its value is 20.4489%.

**Q.** And the “% inhibition apPOL 180'” value (DRC-1, 180', concentration 40)?
**A.** Its value is 28.0717%.

**Q.** What about the “% inhibition apPOL 180'” value (DRC-1, 180', concentration 80) of the same molecule?
**A.** The value was 50.5655%.

**Q.** What about the “% inhibition Apo pol 5'” value (concentration 2.5) of the same molecule?
**A.** The value was 25%.

**Q.** And the “% inhibition Apo pol 5'” value (concentration 5)?
**A.** The value was 36%.

**Q.** What about the “% inhibition Apo pol 5'” value (concentration 10) of the same molecule?
**A.** Its value is 45%.

**Q.** What about the “% inhibition Apo pol 5'” value (concentration 20) of the same molecule?
**A.** The value was 50%.

**Q.** What about the “% inhibition Apo pol 5'” value (concentration 40) of the same molecule?
**A.** The value was 58%.

**Q.** What about the “% inhibition Apo pol 5'” value (concentration 80) of the same molecule?
**A.** Its value is 66%.

**Q.** What about the “% inhibition Apol 40'” value (DRC-2, 40', concentration 2.5) of the same molecule?
**A.** The value was 12%.

**Q.** And the “% inhibition Apol 40'” value (DRC-2, 40', concentration 5)?
**A.** Its value is 21%.

**Q.** What about the “% inhibition Apol 40'” value (DRC-2, 40', concentration 10) of the same molecule?
**A.** The value was 32%.

**Q.** And the “% inhibition Apol 40'” value (DRC-2, 40', concentration 20)?
**A.** Its value is 39%.

**Q.** And the “% inhibition Apol 40'” value (DRC-2, 40', concentration 40)?
**A.** Its value is 54%.

**Q.** And the “% inhibition Apol 40'” value (DRC-2, 40', concentration 80)?
**A.** Its value is 71%.

**Q.** What about the “% inhibition ApPOL 90'” value (DRC-2, 90', concentration 2.5) of the same molecule?
**A.** Its value is 6%.

**Q.** And the “% inhibition ApPOL 90'” value (DRC-2, 90', concentration 5)?
**A.** The value was 15%.

**Q.** What about the “% inhibition ApPOL 90'” value (DRC-2, 90', concentration 10) of the same molecule?
**A.** The value was 24%.

**Q.** What about the “% inhibition ApPOL 90'” value (DRC-2, 90', concentration 20) of the same molecule?
**A.** Its value is 31%.

**Q.** What about the “% inhibition ApPOL 90'” value (DRC-2, 90', concentration 40) of the same molecule?
**A.** Its value is 48%.

**Q.** And the “% inhibition ApPOL 90'” value (DRC-2, 90', concentration 80)?
**A.** Its value is 71%.

**Q.** And the “% inhibition apPOL 180'” value (DRC-2, 180', concentration 2.5)?
**A.** The value was 2%.

**Q.** What about the “% inhibition apPOL 180'” value (DRC-2, 180', concentration 5) of the same molecule?
**A.** The value was 7.6%.

**Q.** What about the “% inhibition apPOL 180'” value (DRC-2, 180', concentration 10) of the same molecule?
**A.** The value was 17%.

**Q.** And the “% inhibition apPOL 180'” value (DRC-2, 180', concentration 20)?
**A.** The value was 23%.

**Q.** What about the “% inhibition apPOL 180'” value (DRC-2, 180', concentration 40) of the same molecule?
**A.** Its value is 41%.

**Q.** And the “% inhibition apPOL 180'” value (DRC-2, 180', concentration 80)?
**A.** The value was 70%.

**Q.** And the “% inhibition Apol 40'” value (conc 80 (unit not given), 40', DRC-2)?
**A.** The value was 71%.

**Q.** What about the “% inhibition ApPOL 90'” value (conc 80 (unit not given), 90', DRC-2) of the same molecule?
**A.** The value was 71%.

**Q.** And the “DNA Pol” value (primary screen hit value, DNA Pol (186 hits))?
**A.** The value was 37.

**Q.** How did the pIC50 turn out when Cc1nc2c(oc3nc(-c4ccoc4)c4c(c32)CC(C)(C)OC4)c(-c2ccccc2)c1C(=O)O [Molecule 93] was run?
**A.** Its pIC50 is 5.20.

**Q.** With CC(=O)OCC1=C(C(=O)O)N2C(=O)[C@@H](NC(=O)Cc3cccs3)[C@H]2SC1 [Molecule 73] as the molecule, how does the pIC50 read?
**A.** The pIC50 was 4.78.

**Q.** How did the pIC50 turn out when CSC(C)C(=O)C=CN(C)C (stereo not shown) [Molecule 71] was run?
**A.** Its pIC50 is 4.57.
